Assay results reported in patent US6894185B2, “Substituted chiral allosteric hemoglobin modifiers” (Allós Therapeutics, Inc., priority 1999, dated 2005).
Values joined by “and” are separate entries in the source; they are usually repeats but may differ in a detail not shown here. Identical values can stand only once.

Legend:
[1] = target: T1, purified stripped human adult hemoglobin (Homo sapiens, UniProt P68871+P69905); experiment: Hemoglobin solution oxygen equilibrium studies (HEMOX-analyzer); format: biochemical; details: 0.5 mM effector, 100 mM bis-Tris buffer, pH 7.2
T1 construct: using purified stripped human adult hemoglobin as described previously; from tissue

[2] = target: T1, purified stripped human adult hemoglobin; experiment: as above; format: biochemical; details: for n50 (Hill coefficient at 50% saturation): n50 control 2.7; for P50e/P50c: ratio to P50 control with no effector (5.0 mmHg)
Protocol: Structure-allosteric activity relationships were determined from the synthetic chiral effectors comparing the shift in the oxygen binding curve of Hb solutions using a Hemox-Analyzer. In vitro biological activity testing in the presence of plasma proteins was also performed on selected enantiomers and racemates (multi-point tonometry and blood gas analysis) to screen for candidates with potential clinical use. SAR studies compared the degree in shift in P50 values, i.e., the partial pressure of molecular oxygen necessary to half-saturate hemoglobin. An effector that decreases Hb oxygen affinity increases the P50 value relative to the control. Thus, the activity or potency of each analog could be expressed by the ratio P50 (effector)/P50(control). […] The slope of the log of the oxygen binding curves is known as the Hill coefficient. The Hill coefficient measures the degree of cooperativity in binding for an allosteric protein, the normal range for human blood is 2.7-3.2.
The effectors were prepared as 10 mM stock solutions in 100 mM NaCl bis-Tris buffer, pH 7.2. After the addition of an excess of NaHCO3, the solution was warmed to 60° C. and stirred for several hours. The solutions were back titrated carefully to pH 7.2 at 25° C. prior to use. Oxygen equilibrium measurements were performed with the HEMOX-analyzer (TCS Medical products, Southampton, Pa.) using purified stripped human adult hemoglobin as described previously. 4 mL of buffer, 100 mM NaCl, 50 mM bis-Tris at pH 7.2, is added to a cuvette in the HEMOX, followed by 200 μL of the 10 mM effector stock solution. Hemoglobin is then added to achieve a final Hb concentration of […] on heme basis. Catalase (20 μg/mL) and 50 mM EDTA were added to limit oxidation of the hemes. […] The saturation of hemoglobin was determined spectrophotometrically with a dual wavelength spectrophotometer (577 nm and 586.2 nm). The solution was stirred constantly during the 45-60 min recordings. The P50 and n50 values were calculated by linear regression analysis from data points comprised between 40 and 60% oxygen saturation.

hemoglobin = target: T2, hemoglobin (Homo sapiens, UniProt P68871+P69905); experiment: In vitro whole blood studies (multi-point tonometry and blood gas analysis); format: cell-based; details: for Whole Blood Δp50 mm Hg: Table II; for ΔP50 ± S.D. (P50 effector − P50control) / P50e (P50 value in the presence of the effector): Table VI, 2.5 mM Hb, 5.0 mM effector; for P50e (P50 value in the presence of the effector): single runs, DMSO stock
T2 construct: The whole blood samples were collected in heparinized tubes from healthy volunteers; from tissue; host or cells: human whole blood (heparinized) from healthy volunteers
Protocol: Structure-allosteric activity relationships were determined from the synthetic chiral effectors comparing the shift in the oxygen binding curve of Hb solutions using a Hemox-Analyzer. In vitro biological activity testing in the presence of plasma proteins was also performed on selected enantiomers and racemates (multi-point tonometry and blood gas analysis) to screen for candidates with potential clinical use. SAR studies compared the degree in shift in P50 values, i.e., the partial pressure of molecular oxygen necessary to half-saturate hemoglobin. An effector that decreases Hb oxygen affinity increases the P50 value relative to the control. Thus, the activity or potency of each analog could be expressed by the ratio P50 (effector)/P50(control). Tables and II and III summarize the p50 values obtained using human whole blood, while Tables IV and V summarize the P50 and the Hill coefficient values (n50) at half-saturation obtained using Hemox-analyzer. The slope of the log of the oxygen binding curves is known as the Hill coefficient. The Hill coefficient measures the degree of cooperativity in binding for an allosteric protein, the normal range for human blood is 2.7-3.2. Table VI presents the results from the whole blood studies given as a ΔP50 and Hill coefficient (n50) values for the enantiomers and racemates.
The whole blood samples were collected in heparinized tubes from healthy volunteers and stored over ice. The sodium salts of the compounds were prepared as described earlier. A 200 mM stock solution of the effector was prepared in DMSO. A 5.0 mM test solution was prepared from 50 μL of the 200 mM test solution and 1950 μL of whole blood. The blood samples were incubated in IL 237 tonometers (Instrumentation Laboratories, Inc. Lexington, Mass.) for approximately 10-12 min at 37° C. and equilibrated at three separate concentrations of O2 (20%, 40%, and 60%). After equilibration at each concentration of O2, a sample was removed via syringe and aspirated into a IL 1420 Automated Blood Gas Analyzer (Instrumentation Laboratories, Inc. Lexington, Mass.) and a IL 482 and IL 682 Co-oximeter (Instrumentation Laboratories, Inc. Lexington, Mass.) to determine the pH, pCO2, pO2 and the hemoglobin oxygen saturation values (sO2), respectively. The measured values for pO2 and sO2 at each oxygen saturation level were then subjected to a non-linear regression analysis using the program Scientist (Micromath, Salt Lake City, Utah) to calculate the P50 and Hill coefficient values.

[3] = Table IV, 0.5 mM effector, pH 7.2
[4] = Table V resolved enantiomers, 0.5 mM effector, pH 7.2

T2 sequence (P69905 2-142 limits assumed): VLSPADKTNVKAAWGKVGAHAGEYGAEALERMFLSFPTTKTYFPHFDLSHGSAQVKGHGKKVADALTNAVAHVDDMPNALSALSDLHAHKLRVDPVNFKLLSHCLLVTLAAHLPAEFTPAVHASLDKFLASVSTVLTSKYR
T2 sequence (P68871 2-147 limits assumed): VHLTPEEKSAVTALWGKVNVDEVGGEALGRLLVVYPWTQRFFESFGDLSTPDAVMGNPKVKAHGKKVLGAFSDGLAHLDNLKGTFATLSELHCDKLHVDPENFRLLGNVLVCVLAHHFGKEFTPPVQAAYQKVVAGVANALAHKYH
T1 sequence (P69905 2-142 limits assumed): as the sequence (P69905 2-142 limits assumed) above
T1 sequence (P68871 2-147 limits assumed): as the sequence (P68871 2-147 limits assumed) above

SMILES	P50e (oxygen pressure at which Hb is 50% saturated with oxygen in the presence of the effector) ([1]; Table IV)	n50 (Hill coefficient at 50% saturation) [2, 3]	P50e/P50c [2, 3]	Whole Blood Δp50 mm Hg (hemoglobin)	P50e (oxygen pressure at which Hb is 50% saturated with oxygen in the presence of the effector) ([1]; Table V resolved enantiomers)	n50 (Hill coefficient at 50% saturation) [2, 4]	P50e/P50c ([2]; Table V resolved enantiomers)	ΔP50 ± S.D. (P50 effector − P50control) (hemoglobin)	P50e (P50 value in the presence of the effector) (hemoglobin)
CC(C)(Oc1ccc(CC(=O)Nc2ccc3c(c2)CCC3)cc1)C(=O)O [RSR46, reference compound]	15 mmHg	2.6	3						
Cc1cc(C)cc(NC(=O)Cc2ccc(OC3(C(=O)O)CCC(C)C3)cc2)c1 (stereo not shown) [Compound 3]	13 mmHg	2.5	2.6	20.3 mm Hg					
Cc1cc(C)cc(NC(=O)Cc2ccc(OC3(C(=O)O)CCOC3C)cc2)c1 (stereo not shown) [Compound 2, 3-[4-[[(3,5-dimethylanifino)carbonyl]methyl]phenoxy]-2-methyltetrahydro-3-furan carboxylic acid]	7.6 mmHg	2.4	1.5	15.2 mm Hg					
Cc1cc(C)cc(NC(=O)Cc2ccc(OC(C)C(=O)O)cc2)c1 (single isomer, unassigned; (-)) [(−) 18, (−)-2-[4-[[(3,5-dimethylanilino)carbonyl]methyl]phenoxy]-propionic acid]					6.6 mmHg	2.5	1.3	12.3 ± 0.6 mmHg	39.7 mmHg and 40.5 mmHg
Cc1cc(C)cc(NC(=O)Cc2ccc(OC3(C(=O)O)CCCC(C)C3)cc2)c1 (stereo not shown) [Compound 11, 1-[4-[[(3,5-dimethylanilino)carbonyl]methyl]phenoxy]-3-methylcyclohexane carboxylic acid]	10 mmHg	2.5	2.1	16 mm Hg					
Cc1cc(C)cc(NC(=O)Cc2ccc(OC3(C(=O)O)CCOCC3)cc2)c1 [Compound 4, 4-[4-[[(3,5-dimethylanilino)carbonyl]methyl]phenoxy]tetrahydro-2H-4-pyrancarboxylic acid]	7.6 mmHg	2.4	1.5	17.8 mm Hg					
CCC(Oc1ccc(CC(=O)Nc2cc(C)cc(C)c2)cc1)C(=O)O (single isomer, unassigned; (-)) [(−) 20]					9.8 mmHg	2.8	2		
Cc1cc(C)cc(NC(=O)Cc2ccc(OC(C)(C)C(=O)O)cc2)c1 [RSR13, reference compound]	23 mmHg	2.3	4.7					45.2 ± 2.2 mmHg	76.5 mmHg and 73.4 mmHg
CCC(Oc1ccc(CC(=O)Nc2cc(C)cc(C)c2)cc1)C(=O)O (racemic) [Compound 20, 2-[4-[[(3,5-dimethylanilino)carbonyl]methyl]phenoxy]-butanoic acid]	13 mmHg	2.7	2.6						
Cc1cc(C)cc(NC(=O)Cc2ccc(OC(F)C(=O)O)cc2)c1 (stereo not shown) [Compound 19, 2-[4-[[3,5-dimethylanilino)carbonyl]methyl]phenoxy-2-fluoroacetic acid]	5.9 mmHg	2.5	1.2						
Cc1cc(Cl)cc(NC(=O)Cc2ccc(OC(C)(C)C(=O)O)cc2)c1 [KDD86, reference compound]	21 mmHg	2.4	4.4						
Cc1cc(C)cc(NC(=O)Cc2ccc(OC(C)C(=O)O)cc2)c1 (racemic) [Compound 18, 2-[4-[[(3,5-dimethylanilino)carbonyl]methyl]phenoxy]-propionic acid]	9.3 mmHg	2.6	1.9					18.2 ± 2.6 mmHg	47.2 mmHg and 43.5 mmHg
CCCC(C)(Oc1ccc(CC(=O)Nc2cc(C)cc(C)c2)cc1)C(=O)O (stereo not shown) [Compound 6, 2-[4-[[(3,5-dimethylanilino)carbonyl]methyl]phenoxy]-2-methylpentanoic acid]	12 mmHg	2.7	2.3	25.6 mm Hg					
CCC(C)(Oc1ccc(CC(=O)Nc2cc(C)cc(C)c2)cc1)C(=O)O (stereo not shown) [Compound 21, 2-[4-[[(3,5-dimethylanilino)carbonyl]methyl]phenoxy]-2-methylbutanoic acid]	13 mmHg	2.4	2.7						
CC1CCC(Oc2ccc(CC(=O)Nc3ccc4c(c3)CCC4)cc2)(C(=O)O)C1 (stereo not shown) [Compound 5]	13 mmHg	2.6	2.5	12.7 mm Hg					
CC1CCCC1(Oc1ccc(CC(=O)Nc2ccc3c(c2)CCC3)cc1)C(=O)O (stereo not shown) [Compound 7]	14 mmHg	2.6	2.8	25.0 mm Hg					
CCC(Oc1ccc(CC(=O)Nc2cc(C)cc(C)c2)cc1)C(=O)O (single isomer, unassigned; (+)) [(+) 20]					18 mmHg	2.7	3.6		
